Measured values as given in publication PMC5285380, “Differential Ability of Bovine Antimicrobial Cathelicidins to Mediate Nucleic Acid Sensing by Epithelial Cells” (Frontiers in Immunology, 2017).
In brackets after ≈: the same amount, converted by molar mass. Bridge positions count the residues as written; N and C are the ends. Ends that are not written are not given here. Peptide text beside a SMILES is read from it.

How the values were obtained:
Format in all cases: cell-based
bovine neutrophils = test: ROS in neutrophils (CM-H2DCFDA flow cytometry); settings: 100 ng/ml PMA for 10 min, then 1 h culture; three animals in duplicates
Description: Bovine neutrophil granulocytes were isolated as previously described with a few adaptations ([20], [21]). Bovine blood sampling was performed in compliance with the Swiss animal protection law and approved by the animal welfare committee of the Canton of Bern, Switzerland, license number BE102/15. Briefly, 200 ml of blood was drawn from the jugular vein of cows at the Clinic for Ruminants (Vetsuisse Faculty, University of Bern, Switzerland) and was directly mixed with citrate-based anti-coagulant Alsever’s solution (1.55 mM of C6H12O6, 408 mM of Na3C6H5O7⋅2H2O, 1.078 mM of NaCl, and 43 mM of C6H8O7, pH 6.2). […] Neutrophils were recovered in the pellet, washed once with PBS/EDTA, counted in Trypan blue solution, and resuspended at 5 × 10^7 cells/ml in RPMI 1640 medium (Biochrom GmbH, Berlin, Germany). […] Aliquots of 5 × 10^6 neutrophils per tube were used to quantify ROS. […]
Figure 6 Cathelicidins can be detected in the supernatants of phorbol myristate acetate (PMA)-activated neutrophils. […] (A) Forward and side scatter characteristics of neutrophils stimulated with PMA or left unstimulated were evaluated by flow cytometry (left). […] (B) Histogram overlay of CM-H2DCFDA fluorescence as an indicator of ROS formation. […]

[1] = tested on: Staphylococcus aureus M3850
Description: (§1) All bacterial strains including S. aureus strains (M3842, M905-1, and M3850) ([22]), S. uberis strains (M100/11, BL246, and ALP8092) ([23]) and E. coli (9217/10) were isolated from bovine mastitis milk ([24]). All strains were maintained on Trypticase soy agar plates with 5% sheep blood (Becton Dickinson AG, Allschwil, Switzerland) and always freshly plated the day before the experiment. Bacterial colonies were suspended in 0.85% NaCl solution (Axon Lab AG, Baden, Switzerland) to reach an OD value of 0.5 (DensiCHECK PLUS, Biomérieux, Genève, Switzerland), corresponding to approximately 1–1.5 × 10^8 cell/ml. The minimum inhibitory concentration (MIC) of cathelicidins was determined by the broth microdilution method as previously described ([25]). Bacteria were further diluted to approximately 1 × 10^5 cells/ml in cation-adjusted Mueller-Hinton (MH) broth (Thermo Fisher Scientific). Several twofold peptide dilutions (40–0.3 µM) were prepared in a volume of 50 µl MH II broth (Becton Dickinson AG) in a round-bottom 96-well plate. Finally, 50 µl of 10^5 cells/ml were added to the peptide dilutions to reach a final concentration of 5 × 10^4 cells/ml.

[2] = tested on: Streptococcus uberis ALP8092
Description: as §1

Escherichia coli 9217/10 = tested on: Escherichia coli 9217/10
Description: as §1

[3] = tested on: Staphylococcus aureus M3842
Description: as §1

[4] = tested on: Staphylococcus aureus M905-1
Description: as §1

[5] = tested on: Streptococcus uberis M100/11
Description: as §1

[6] = tested on: Streptococcus uberis BL246
Description: as §1

[7] = tested on: Mx1 in primary bovine turbinate epithelial cells (BT cells); test: Mx1 induction in BT cells (western blot), nucleic acid sensing; settings: poly(I:C) alone, titration, 20 h, western blot (Figure S3)
Description: Primary bovine turbinate epithelial cells (BT cells) were obtained as previously described ([26]) and the cultures maintained in DMEM supplemented with 10% FBS, non-essential amino acids (NEAA), neomycin/bacitracin, penicillin/streptomycin (stock solutions purchased from Biochrom), and GlutaMAX (Thermo Fisher Scientific). BT cells were plated in 24-well plates at 50,000 cells/well and incubated for 18 h at 37°C in 5% CO2. For induction of Mx, cathelicidins were mixed with 100 ng/ml of poly(I:C) in a final volume of 1 ml, incubated for 10 min at room temperature, and then added to the cells. Alternatively, different dilutions of neutrophil-derived supernatants were mixed with poly(I:C) at 100 ng/ml in complete medium (DMEM with 10% FBS, NEAA, neomycin/bacitracin, penicillin/streptomycin, and GlutaMAX). Positive controls for Mx1 induction included cell treatment with 100 ng/ml of bovine rIFN-α and 1 µg/ml of poly(I:C). Cultures were further incubated at 37°C for 20 h. […]
Figure 5 Bovine myeloid antimicrobial peptide (BMAP)-27, sBAMP-27, BMAP-28, BMAP-34, and Bac1 promote nucleic acid sensing in primary epithelial cells. […] After 20 h incubation, Mx1 and β-actin were detected by western blot. […] After 20 h of culture, Mx1 and β-actin were detected by western blot. […]

**Q.** For `CCCCCCCCCCCCCC(=O)O[C@@H]1[C@@H](C)[C@@]2(O)[C@@H](C=C(CO)C[C@]3(O)C(=O)C(C)=C[C@@H]23)[C@@H]2C(C)(C)[C@]12OC(C)=O` [PMA, phorbol myristate acetate], which “fluorescence intensity of CM-H2DCFDA (ROS indicator) compared to unstimulated neutrophils” value (bovine neutrophils) is on record?
**A.** significantly higher

**Q.** GLPKLHFRRKKGKLVSFPLKFKFKIRL [sBMAP-27] was tested. Which MIC [1] did it give?
**A.** 17.78 ± 4.41 µM

**Q.** What about the MIC [2] of the same compound?
**A.** 8.33 ± 2.5 µM

**Q.** What about the MIC (Escherichia coli 9217/10) of the same compound?
**A.** 10.00 ± 0 µM

**Q.** What about the MIC [3] of the same compound?
**A.** ≥20 ± 10 µM

**Q.** What about the MIC [4] of the same compound?
**A.** 20.00 ± 0 µM

**Q.** What about the MIC [5] of the same compound?
**A.** 5.00 ± 0 µM

**Q.** What about the MIC [6] of the same compound?
**A.** 5.56 ± 1.67 µM

**Q.** Which results are given for `CC[C@H](C)[C@@H]1NC(=O)[C@H](CCCNC(=N)N)NC(=O)[C@@H](NC(=O)[C@H](CC(C)C)NC(=O)[C@@H](N)CCCNC(=N)N)CSSC[C@@H](C(=O)N[C@@H](CCCNC(=N)N)C(=O)O)NC(=O)[C@H](C(C)C)NC(=O)[C@H](CCCNC(=N)N)NC(=O)[C@H]([C@@H](C)CC)NC(=O)[C@H](C(C)C)NC(=O)[C@H](C(C)C)NC1=O` [Bac1] (H-RLCRIVVIRVCR-OH; disulfide 3-11)?
**A.** MIC [1]: ≥20 ± 6.67 µM; MIC [2]: ≥20 ± 10 µM; MIC (Escherichia coli 9217/10): >20 µM; MIC [3]: >20 µM; MIC [4]: >20 µM; MIC [5]: 13.33 ± 5 µM (≈ 19.8 µg/mL); MIC [6]: 20.00 ± 0 µM (≈ 29.7 µg/mL)

**Q.** What does the source list for GRFKRFRKKFKKLFKKLSPVIPLLHLG [BMAP-27]?
**A.** MIC [1]: 7.22 ± 2.64 µM; MIC [2]: 4.72 ± 0.83 µM; MIC (Escherichia coli 9217/10): 2.50 ± 0 µM; MIC [3]: 5.00 ± 0 µM; MIC [4]: 8.33 ± 2.5 µM; MIC [5]: 2.78 ± 0.83 µM; MIC [6]: 4.17 ± 1.25 µM

**Q.** For GGLRSLGRKILRAWKKYGPIIVPIIRIG [BMAP-28], which MIC [1] is on record?
**A.** 17.78 ± 4.41 µM

**Q.** What about the MIC [2] of the same compound?
**A.** 10.00 ± 0 µM

**Q.** And the MIC (Escherichia coli 9217/10)?
**A.** 10.00 ± 0 µM

**Q.** What about the MIC [3] of the same compound?
**A.** 13.33 ± 5 µM

**Q.** What about the MIC [4] of the same compound?
**A.** 14.44 ± 5.27 µM

**Q.** And the MIC [5]?
**A.** 10.00 ± 0 µM

**Q.** And the MIC [6]?
**A.** 10.00 ± 0 µM

**Q.** What does the source list for “RFRPPIRRPPIRPPFYPPFRPPIRPPIFPPIRPPFRPPLGPFP [Bac5]”?
**A.** MIC [1]: >20 µM; MIC [2]: 20.00 ± 0 µM; MIC (Escherichia coli 9217/10): >20 µM; MIC [3]: >20 µM; MIC [4]: >20 µM; MIC [5]: 2.78 ± 0.83 µM; MIC [6]: 6.11 ± 2.2 µM

**Q.** Which “concentration of poly(I:C) below which induction of Mx1 was not detectable” value [7] does the source give for “Polyinosinic–polycytidylic acid [poly(I:C)]” here?
**A.** 156 ng/mL

**Q.** Which results are given for “AGLFRRLRDSIRRGQQKILEKARRIGERIKDIFRG [BMAP-34]”?
**A.** MIC [1]: 10.00 ± 0 µM; MIC [2]: 5.00 ± 0 µM; MIC (Escherichia coli 9217/10): 5.00 ± 0 µM; MIC [3]: 12.22 ± 4.41 µM; MIC [4]: 14.44 ± 5.27 µM; MIC [5]: 5.00 ± 0 µM; MIC [6]: 4.17 ± 1.25 µM
